# BindingDB's records for doi:10.1021/acs.jmedchem.9b00742 (Leiden University, 2019)
# Key:
# [1] = target: T1, C-C chemokine receptor type 2 (Homo sapiens, UniProt P41597); assay: Displacement of [3H]-CCR2-RA-[R] from human CCR2 expressed in human U2OS cells incubated for 2 hrs by scintillation spectrometric method
# [2] = target: T2, C-C chemokine receptor type 5 (Homo sapiens, UniProt P51681); assay: Non-competitive insurmountable antagonist activity at human CCR5 expressed in human U2OS cell membranes assessed as EC50 for CCL3-stimulated [35S]GTPgammaS binding at 1000 nM preincubated for 30 mins followed by [35S]GTPgammaS addition and measured after 90 mins (Rvb = 4 nM)
# [3] = target: T1, C-C chemokine receptor type 2; assay: Non-competitive insurmountable antagonist activity at human CCR2 expressed in human U2OS cell membranes assessed as pEC50 for CCL2-stimulated [35S]GTPgammaS binding at 30 nM preincubated for 30 mins followed by [35S]GTPgammaS addition and measured after 90 mins (Rvb = 8.10 +/- 0.06 No_unit)
# [4] = target: T1, C-C chemokine receptor type 2; assay: Non-competitive insurmountable antagonist activity at human CCR2 expressed in human U2OS cell membranes assessed as pEC50 for CCL2-stimulated [35S]GTPgammaS binding at 100 nM preincubated for 30 mins followed by [35S]GTPgammaS addition and measured after 90 mins (Rvb = 8.10 +/- 0.06 No_unit)
# [5] = target: T1, C-C chemokine receptor type 2; assay: Non-competitive insurmountable antagonist activity at human CCR2 expressed in human U2OS cell membranes assessed as pEC50 for CCL2-stimulated [35S]GTPgammaS binding at 10 nM preincubated for 30 mins followed by [35S]GTPgammaS addition and measured after 90 mins (Rvb = 8.10 +/- 0.06 No_unit)
# [6] = target: T1, C-C chemokine receptor type 2; assay: Non-competitive insurmountable antagonist activity at human CCR2 expressed in human U2OS cell membranes assessed as EC50 for CCL2-stimulated [35S]GTPgammaS binding at 10 nM preincubated for 30 mins followed by [35S]GTPgammaS addition and measured after 90 mins (Rvb = 8 nM)
# [7] = target: T2, C-C chemokine receptor type 5; assay: Non-competitive insurmountable antagonist activity at human CCR5 expressed in human U2OS cell membranes assessed as EC50 for CCL3-stimulated [35S]GTPgammaS binding at 300 nM preincubated for 30 mins followed by [35S]GTPgammaS addition and measured after 90 mins (Rvb = 4 nM)
# [8] = target: T2, C-C chemokine receptor type 5; assay: Non-competitive insurmountable antagonist activity at human CCR5 expressed in human U2OS cell membranes assessed as pEC50 for CCL3-stimulated [35S]GTPgammaS binding at 300 nM preincubated for 30 mins followed by [35S]GTPgammaS addition and measured after 90 mins (Rvb = 8.42 +/- 0.06 No_unit)
# [9] = target: T2, C-C chemokine receptor type 5; assay: Non-competitive insurmountable antagonist activity at human CCR5 expressed in human U2OS cell membranes assessed as EC50 for CCL3-stimulated [35S]GTPgammaS binding at 100 nM preincubated for 30 mins followed by [35S]GTPgammaS addition and measured after 90 mins (Rvb = 4 nM)
# [10] = target: T2, C-C chemokine receptor type 5; assay: Non-competitive insurmountable antagonist activity at human CCR5 expressed in human U2OS cell membranes assessed as pEC50 for CCL3-stimulated [35S]GTPgammaS binding at 100 nM preincubated for 30 mins followed by [35S]GTPgammaS addition and measured after 90 mins (Rvb = 8.42 +/- 0.06 No_unit)
# [11] = target: T1, C-C chemokine receptor type 2; assay: Antagonist activity at CCR2b in human THP1 cells assessed as inhibition of human MCP1 induced calcium flux by fluo-4 dye based fluorescence assay
# [12] = target: T1, C-C chemokine receptor type 2; assay: Non-competitive insurmountable antagonist activity at human CCR2 expressed in human U2OS cell membranes assessed as pEC50 for CCL2-stimulated [35S]GTPgammaS binding at 3 nM preincubated for 30 mins followed by [35S]GTPgammaS addition and measured after 90 mins (Rvb = 8.10 +/- 0.06 No_unit)
# [13] = target: T1, C-C chemokine receptor type 2; assay: Non-competitive insurmountable antagonist activity at human CCR2 expressed in human U2OS cell membranes assessed as EC50 for CCL2-stimulated [35S]GTPgammaS binding at 3 nM preincubated for 30 mins followed by [35S]GTPgammaS addition and measured after 90 mins (Rvb = 8 nM)
# [14] = target: T1, C-C chemokine receptor type 2; assay: Non-competitive insurmountable antagonist activity at human CCR2 expressed in human U2OS cell membranes assessed as pEC50 for CCL2-stimulated [35S]GTPgammaS binding at 1 nM preincubated for 30 mins followed by [35S]GTPgammaS addition and measured after 90 mins (Rvb = 8.10 +/- 0.06 No_unit)
# [15] = target: T1, C-C chemokine receptor type 2; assay: Non-competitive insurmountable antagonist activity at human CCR2 expressed in human U2OS cell membranes assessed as EC50 for CCL2-stimulated [35S]GTPgammaS binding at 1 nM preincubated for 30 mins followed by [35S]GTPgammaS addition and measured after 90 mins (Rvb = 8 nM)
# [16] = target: T2, C-C chemokine receptor type 5; assay: Non-competitive insurmountable antagonist activity at human CCR5 expressed in human U2OS cell membranes assessed as pEC50 for CCL3-stimulated [35S]GTPgammaS binding at 30 nM preincubated for 30 mins followed by [35S]GTPgammaS addition and measured after 90 mins (Rvb = 8.42 +/- 0.06 No_unit)
# T1 sequence (P41597 whole entry): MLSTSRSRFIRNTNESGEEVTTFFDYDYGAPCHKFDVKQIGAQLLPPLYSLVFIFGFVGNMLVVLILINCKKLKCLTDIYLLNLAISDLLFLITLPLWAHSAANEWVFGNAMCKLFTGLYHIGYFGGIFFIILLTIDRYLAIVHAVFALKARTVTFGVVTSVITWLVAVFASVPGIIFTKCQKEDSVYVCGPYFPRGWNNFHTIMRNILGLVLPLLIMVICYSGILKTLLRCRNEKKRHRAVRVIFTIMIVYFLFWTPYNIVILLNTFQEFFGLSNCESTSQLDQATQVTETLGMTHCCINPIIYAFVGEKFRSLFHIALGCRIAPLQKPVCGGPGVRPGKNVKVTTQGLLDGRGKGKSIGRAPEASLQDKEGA
# T2 sequence (P51681 whole entry): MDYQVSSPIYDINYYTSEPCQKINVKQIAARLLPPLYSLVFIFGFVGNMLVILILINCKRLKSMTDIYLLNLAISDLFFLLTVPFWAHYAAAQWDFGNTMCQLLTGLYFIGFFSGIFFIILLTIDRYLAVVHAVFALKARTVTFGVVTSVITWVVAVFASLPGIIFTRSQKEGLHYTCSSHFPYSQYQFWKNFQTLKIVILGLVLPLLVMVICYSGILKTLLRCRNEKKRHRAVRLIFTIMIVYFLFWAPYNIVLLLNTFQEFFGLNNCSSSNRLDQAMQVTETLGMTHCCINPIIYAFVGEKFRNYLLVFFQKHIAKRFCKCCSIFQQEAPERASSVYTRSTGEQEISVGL
Ki [1],EC50 [5],EC50 [6],EC50 [7],EC50 [8],EC50 [9],EC50 [10],SMILES,also measured
2.95 nM,–,–,–,–,–,–,Nc1nc2[nH]c(C3CC3)c(Cc3cccc(F)c3)c(=O)n2n1,–
–,13 nM,13 nM,8.0 nM,7.2 nM,5.0 nM,4.5 nM,CC(C)c1[nH]c2nc(N)nn2c(=O)c1Cc1cccc(Cl)c1Cl,EC50 [2]: 9.0 nM; EC50 [3]: 25 nM; EC50 [4]: 54 nM
–,–,–,–,–,–,–,O=c1c(Cc2cccc(Cl)c2)c(C2CC2)[nH]c2ncnn12,IC50 [11]: 16 nM
22.9 nM,–,–,–,–,–,–,Nc1nc2[nH]c(-c3ccccc3)c(Cc3cccc(Cl)c3)c(=O)n2n1,–
–,135 nM,148 nM,9.0 nM,8.9 nM,6.0 nM,6.2 nM,CC(C)c1[nH]c2nc(N)nn2c(=O)c1Cc1ccc(Cl)c(Br)c1,EC50 [12]: 30 nM; EC50 [13]: 32 nM; EC50 [14]: 12 nM; EC50 [15]: 13 nM; EC50 [16]: 5.0 nM
0.447 nM,–,–,–,–,–,–,Nc1nc2[nH]c(C3CC3)c(Cc3ccc(Cl)c(Cl)c3)c(=O)n2n1,–
